Data from BindingDB's records for doi:10.1016/j.bmcl.2013.09.026 (Friedrich-Alexander University, 2013).

Biological target: Alpha-1 adrenergic receptor (Sus scrofa)
Assay: Displacement of [3H]-prazosin from alpha1-adrenergic receptor in pig cerebral cortex

Ki [nM]	SMILES
110	COc1ccccc1N1CCN(Cc2cn(CCCCCCF)nn2)CC1
490	COc1ccccc1N1CCN(Cc2cn(CCOCCOCCF)nn2)CC1
